Measured values: US20260193293A1, “PEPTIDES CAPABLE OF INHIBITING PROTEIN-PROTEIN INTERACTIONS AT GABAB1A SUBUNIT AND USES THEREOF” (UNIVERSITY OF COPENHAGEN, priority 2022, published 2026)
Read-outs that look alike come from different tables or passages of the source. Non-standard residues stand in square brackets, D forms with d. Residues, ends and D or L forms follow the SMILES beside them. 2Nal = N[C@@H](Cc1ccc2ccccc2c1)C(=O)O; NMeT = CN[C@H](C(=O)O)[C@@H](C)O; 4Pal = N[C@@H](Cc1ccncc1)C(=O)O; NMeE = CN[C@@H](CCC(=O)O)C(=O)O; NMeD = CN[C@@H](CC(=O)O)C(=O)O; NMeS = CN[C@@H](CO)C(=O)O; Sar = CNCC(=O)O

Molecular target: Sushi domains (SD1/2) protein
Test: Fluorescence polarization (FP) competition assay with AJAP-1probe, calculated Ki
Type: binding
Method: Fluorescence polarization (FP). FP assay was employed to determine the binding affinity of peptides in flat bottom black 384-well plates (Corning Life Science) using a Safire2 plate reader (Tecan). All experiments were conducted in 1×PBS (pH 7.4) containing 1% bovine serum albumin (BSA) at rt. The fluorescence polarization values were measured using excitation/emission wavelengths of 530/580 nm. The instrumental Z-factor was adjusted to obtain the maximum fluorescence intensity and the G-factor was calibrated to give an initial millipolarization value of 20 mP. All FP assays including saturation or competition experiments were performed using 25 nM of TAMRA labeled peptides as probes. For saturation assay, the millipolarization values were measured after mixing of probes with 12 serial 1 to 1 diluted concentrations of Sushi domains (SD1/2) protein. All experiments were performed in triplicate and the data were plotted to the one-site binding model using GraphPad Prism 9 to calculate the Kd of probes. […] The experiments were performed at least in triplicate and the data were fitted to the sigmoidal dose response curve using GraphPad Prism 9 to obtain the IC50 of peptides. The Ki values were calculated according to Nikolovska-Coleska et al^310.

[1] = Table 5, elongation and truncation scan of AJAP-1 binding epitope, read-out: Ki (nM) mean ± SEM
[2] = Table 7, Ala-, D-amino acids and N-methylation scans of APPWT, read-out: Ki (nM) mean ± SEM
[3] = Table 16, ncAAs incorporated peptides, read-out: Ki (nM) mean ± SEM
[4] = Table 8, Ala-, D-amino acids and N-methylation scans of AJAP-1WT, read-out: Ki (nM) mean ± SEM
[5] = Table 6, elongation and truncation scan of PIANP binding epitope, read-out: Ki (nM) mean ± SEM
[6] = Table 12, deep mutational scanning validation variants of PIANPWT, read-out: Ki (nM) mean ± SEM

Structure (SMILES): CC[C@H](C)[C@H](NC(=O)[C@H](Cc1ccccc1)NC(=O)[C@H](CCC(=O)O)NC(=O)[C@@H](NC(=O)[C@H](CCC(=O)O)NC(C)=O)[C@@H](C)O)C(=O)N[C@@H](C)C(=O)N[C@@H](Cc1c[nH]c2ccccc12)C(=O)NCC(=O)N1CCC[C@H]1C(=O)N[C@H](C(=O)NCC(=O)N[C@@H](CC(=O)O)C(=O)N[C@@H](CCC(=O)O)C(=O)N[C@@H](Cc1ccccc1)C(N)=O)[C@@H](C)O (Ac-ETEFIAWGPTGDEF-NH2)
- Ki (Table 11, deep mutational scanning validation variants of AJAP-1WT, read-out: Ki (nM) mean ± SEM): 48 ± 1 nM

Structure (SMILES): CC(=O)N[C@@H](C)C(=O)N[C@@H](Cc1c[nH]c2ccccc12)C(=O)NCC(=O)N1CCC[C@H]1C(=O)N[C@H](C(=O)NCC(=O)N[C@@H](CC(=O)O)C(=O)N[C@@H](CCC(=O)O)C(=O)N[C@@H](CC(=O)O)C(N)=O)[C@@H](C)O [AWGPTGDED] (Ac-AWGPTGDED-NH2)
- Ki [1]: > 125000 nM

Structure (SMILES): CC(=O)N[C@@H](CCC(=O)O)C(=O)N[C@@H](CC(=O)O)C(=O)N[C@@H](CC(=O)O)C(=O)N[C@@H](CO)C(=O)N[C@@H](CC(=O)O)C(=O)N[C@H](C(=O)N[C@@H](Cc1c[nH]c2ccccc12)C(=O)N[C@@H](Cc1c[nH]c2ccccc12)C(=O)N(C)CC(=O)NCC(=O)N[C@@H](C)C(=O)N[C@@H](CC(=O)O)C(=O)N[C@H](C(=O)N[C@@H](CC(=O)O)C(N)=O)[C@@H](C)O)C(C)C (Ac-EDDSDVWW[Sar]GADTD-NH2)
- Ki [2]: 18900 ± 554 nM

Structure (SMILES): CC(=O)N[C@@H](CCC(=O)O)C(=O)N[C@@H](CC(=O)O)C(=O)N[C@@H](CC(=O)O)C(=O)N[C@@H](CO)C(=O)N[C@@H](Cc1ccncc1)C(=O)N[C@H](C(=O)N[C@@H](Cc1c[nH]c2ccccc12)C(=O)N[C@@H](Cc1c[nH]c2ccccc12)C(=O)NCC(=O)NCC(=O)N[C@@H](C)C(=O)N[C@@H](CC(=O)O)C(=O)N[C@H](C(=O)N[C@@H](CC(=O)O)C(N)=O)[C@@H](C)O)C(C)C (Ac-EDDS[4Pal]VWWGGADTD-NH2)
- Ki [3]: 424 ± 13 nM

Structure (SMILES): CC(=O)N[C@@H](CCC(=O)O)C(=O)N[C@@H](CC(=O)O)C(=O)N[C@@H](CC(=O)O)C(=O)N[C@@H](CO)C(=O)N[C@@H](CC(=O)O)C(=O)N[C@H](C(=O)N[C@@H](Cc1c[nH]c2ccccc12)C(=O)N[C@@H](Cc1ccc2ccccc2c1)C(=O)NCC(=O)NCC(=O)N[C@@H](C)C(=O)N[C@@H](CC(=O)O)C(=O)N[C@H](C(=O)N[C@@H](CC(=O)O)C(N)=O)[C@@H](C)O)C(C)C [EDDSDVW(2Nala)GGADTD] (Ac-EDDSDVW[2Nal]GGADTD-NH2)
- Ki [3]: 814 ± 10 nM

Structure (SMILES): CC[C@H](C)[C@H](NC(=O)[C@H](Cc1ccccc1)NC(=O)[C@H](CCC(=O)O)NC(=O)[C@@H](NC(=O)[C@H](CCC(=O)O)NC(C)=O)[C@@H](C)O)C(=O)N[C@@H](C)C(=O)N[C@@H](Cc1c[nH]c2ccccc12)C(=O)NCC(=O)N1CCC[C@H]1C(=O)N[C@H](C(=O)NCC(=O)N[C@@H](CC(=O)O)C(=O)N(C)[C@@H](CCC(=O)O)C(=O)N[C@@H](CC(=O)O)C(N)=O)[C@@H](C)O (Ac-ETEFIAWGPTGD[NMeE]D-NH2)
- Ki [4]: 31 ± 1 nM

Structure (SMILES): CC[C@H](C)[C@H](NC(=O)[C@H](C)NC(=O)[C@H](Cc1c[nH]c2ccccc12)NC(=O)[C@@H]1CCCN1C(=O)[C@H](Cc1ccc(O)cc1)NC(=O)[C@H](CCC(N)=O)NC(C)=O)C(=O)N[C@H](C(=O)N[C@@H](Cc1c[nH]c2ccccc12)C(=O)NCC(=O)N1CCC[C@H]1C(=O)N[C@H](C(=O)N[C@H](C(=O)N[C@@H](CO)C(=O)N[C@@H](CCCNC(=N)N)C(=O)N[C@@H](CCC(=O)O)C(=O)N[C@@H](CC(=O)O)C(=O)NCC(N)=O)C(C)C)[C@@H](C)O)C(C)C (Ac-QYPWAIVWGPTVSREDG-NH2)
- Ki [5]: 650 ± 9 nM

Structure (SMILES): CC(=O)N[C@@H](CCC(=O)O)C(=O)N[C@@H](CC(=O)O)C(=O)N[C@@H](CC(=O)O)C(=O)N(C)[C@@H](CO)C(=O)N[C@@H](CC(=O)O)C(=O)N[C@H](C(=O)N[C@@H](Cc1c[nH]c2ccccc12)C(=O)N[C@@H](Cc1c[nH]c2ccccc12)C(=O)NCC(=O)NCC(=O)N[C@@H](C)C(=O)N[C@@H](CC(=O)O)C(=O)N[C@H](C(=O)N[C@@H](CC(=O)O)C(N)=O)[C@@H](C)O)C(C)C (Ac-EDD[NMeS]DVWWGGADTD-NH2)
- Ki [2]: 1670 ± 32 nM

Structure (SMILES): CC[C@H](C)[C@H](NC(=O)[C@H](Cc1ccccc1)NC(=O)[C@H](CCC(=O)O)NC(=O)[C@@H](NC(=O)[C@H](CCC(=O)O)NC(C)=O)[C@@H](C)O)C(=O)N[C@@H](C)C(=O)N[C@@H](Cc1c[nH]c2ccccc12)C(=O)NCC(=O)N1CCC[C@H]1C(=O)N[C@H](C(=O)NCC(=O)N(C)[C@@H](CC(=O)O)C(=O)N[C@@H](CCC(=O)O)C(=O)N[C@@H](CC(=O)O)C(N)=O)[C@@H](C)O (Ac-ETEFIAWGPTG[NMeD]ED-NH2)
- Ki [4]: 45 ± 2 nM

Structure (SMILES): CC(=O)N[C@@H](CCC(=O)O)C(=O)N[C@@H](C)C(=O)N[C@@H](CC(=O)O)C(=O)N[C@@H](CO)C(=O)N[C@@H](CC(=O)O)C(=O)N[C@H](C(=O)N[C@@H](Cc1c[nH]c2ccccc12)C(=O)N[C@@H](Cc1c[nH]c2ccccc12)C(=O)NCC(=O)NCC(=O)N[C@@H](C)C(=O)N[C@@H](CC(=O)O)C(=O)N[C@H](C(=O)N[C@@H](CC(=O)O)C(N)=O)[C@@H](C)O)C(C)C (Ac-EADSDVWWGGADTD-NH2)
- Ki [2]: 1240 ± 65 nM

Structure (SMILES): CC[C@H](C)[C@H](NC(=O)[C@@H](NC(=O)[C@H](Cc1c[nH]c2ccccc12)NC(=O)[C@@H]1CCCN1C(C)=O)C(C)C)C(=O)N[C@H](C(=O)N[C@@H](Cc1c[nH]c2ccccc12)C(=O)NCC(=O)N1CCC[C@H]1C(=O)N[C@H](C(=O)N[C@H](C(=O)N[C@@H](CO)C(=O)N[C@@H](CCCNC(=N)N)C(=O)N[C@@H](CCC(=O)O)C(=O)N[C@@H](CC(=O)O)C(N)=O)C(C)C)[C@@H](C)O)C(C)C [PWVIVWGPTVSRED] (Ac-PWVIVWGPTVSRED-NH2)
- Ki [6]: 302 ± 4 nM

Structure (SMILES): CC[C@H](C)[C@H](NC(=O)[C@H](C)NC(=O)[C@H](Cc1c[nH]c2ccccc12)NC(=O)[C@@H]1CCCN1C(C)=O)C(=O)N[C@H](C(=O)N[C@@H](Cc1c[nH]c2ccccc12)C(=O)NCC(=O)N1CCC[C@H]1C(=O)N[C@H](C(N)=O)[C@@H](C)O)C(C)C (Ac-PWAIVWGPT-NH2)
- Ki [5]: 716 ± 6 nM

Structure (SMILES): CC[C@H](C)[C@H](NC(=O)[C@H](Cc1c[nH]c2ccccc12)NC(=O)[C@H](CC(=O)O)NC(=O)[C@H](CC(=O)O)NC(=O)[C@H](CC(=O)O)NC(=O)[C@H](CCC(=O)O)NC(=O)[C@H](CCCCN)NC(=O)[C@H](C)NC(=O)[C@H](C)NC(=O)[C@H](C)NC(=O)[C@H](CCC(=O)O)NC(=O)[C@H](CCCNC(=N)N)NC(=O)[C@H](CCCNC(=N)N)NC(=O)[C@H](CCCNC(=N)N)NC(=O)[C@H](CCCNC(=N)N)NC(=O)[C@H](CCCNC(=N)N)NC(=O)[C@H](CCCNC(=N)N)NC(=O)[C@H](CCCNC(=N)N)NC(=O)[C@H](CCCNC(=N)N)NC(C)=O)C(=O)N[C@@H](CC(=O)O)C(=O)N[C@@H](Cc1c[nH]c2ccccc12)C(=O)NCC(=O)N1CCC[C@H]1C(=O)N[C@H](C(=O)N[C@@H](CO)C(=O)N[C@@H](CC(=O)O)C(=O)N[C@@H](CC(=O)O)C(=O)N[C@@H](CC(=O)O)C(N)=O)[C@@H](C)O [Peptide R8-RL-17] (Ac-RRRRRRRREAAAKEDDDWIDWGPTSDDD-NH2)
- Ki (CPP tagged peptides overview, SD1/2 binding affinity, mean ± SEM, n ≥ 3, read-out: Ki): 105 ± 2 nM
- Ki (Table 14, CPPs tagged peptides, read-out: Ki (nM) mean ± SEM): 105 ± 2 nM

Structure (SMILES): CC[C@H](C)[C@H](NC(=O)[C@H](Cc1ccccc1)NC(=O)[C@H](CCC(=O)O)NC(=O)[C@@H](NC(=O)[C@H](CCC(=O)O)NC(C)=O)[C@@H](C)O)C(=O)N[C@@H](C)C(=O)N[C@@H](Cc1c[nH]c2ccccc12)C(=O)NCC(=O)N1CCC[C@H]1C(=O)N(C)[C@H](C(=O)NCC(=O)N[C@@H](CC(=O)O)C(=O)N[C@@H](CCC(=O)O)C(=O)N[C@@H](CC(=O)O)C(N)=O)[C@@H](C)O (Ac-ETEFIAWGP[NMeT]GDED-NH2)
- Ki [4]: 77 ± 3 nM

Structure (SMILES): CC[C@H](C)[C@H](NC(=O)[C@H](C)NC(=O)[C@H](Cc1c[nH]c2ccccc12)NC(C)=O)C(=O)N[C@H](C(=O)N[C@@H](Cc1c[nH]c2ccccc12)C(=O)NCC(=O)N1CCC[C@H]1C(=O)N[C@H](C(=O)N[C@H](C(=O)N[C@@H](CO)C(=O)N[C@@H](CCCNC(=N)N)C(=O)N[C@@H](CCC(=O)O)C(=O)N[C@@H](CC(=O)O)C(=O)NCC(=O)NCC(N)=O)C(C)C)[C@@H](C)O)C(C)C (Ac-WAIVWGPTVSREDGG-NH2)
- Ki (Table 3, SPOT hit validation and previously reported peptides, read-out: Ki (nM) mean ± SEM): 1350 ± 49 nM

Structure (SMILES): CC[C@H](C)[C@H](NC(=O)[C@H](C)NC(=O)[C@H](Cc1c[nH]c2ccccc12)NC(=O)[C@H](CC(=O)O)NC(C)=O)C(=O)N[C@H](C(=O)N[C@@H](Cc1c[nH]c2ccccc12)C(=O)NCC(=O)N1CCC[C@H]1C(=O)N[C@H](C(=O)N[C@H](C(=O)N[C@@H](CO)C(=O)N[C@@H](CCCNC(=N)N)C(=O)N[C@@H](CCC(=O)O)C(=O)N[C@@H](CC(=O)O)C(N)=O)C(C)C)[C@@H](C)O)C(C)C [DWAIVWGPTVSRED] (Ac-DWAIVWGPTVSRED-NH2)
- Ki [6]: 338 ± 1 nM

Structure (SMILES): CC[C@H](C)[C@H](NC(C)=O)C(=O)N[C@@H](C)C(=O)N[C@@H](Cc1c[nH]c2ccccc12)C(=O)NCC(=O)N1CCC[C@H]1C(=O)N[C@H](C(=O)NCC(=O)N[C@@H](CC(=O)O)C(=O)N[C@@H](CCC(=O)O)C(=O)N[C@@H](CC(=O)O)C(N)=O)[C@@H](C)O [IAWGPTGDED] (Ac-IAWGPTGDED-NH2)
- Ki [1]: 38000 ± 430 nM
